Data set [1] is described as follows: Cell cytotoxicity test: protection of HT22 cells against glutamate toxicity (EC50) and cytotoxicity of the compounds (CC50), MTT. The class given is cell-based, mouse. As to conditions: mouse, HT22 cells (mouse hippocampal neuron). The protocol:
(§1) HT22 cells (mouse hippocampal neuron, Salk Institute and KRIBB) were plated in a 96-well plate at a density of 3×10^3 cells/well for 16 hrs before treatment. The cells were treated with five millimolar glutamate and various concentrations of the inventive compounds and incubated for 24 hrs in a growth media (DMEM with 10% FBS and 1% penicillin streptomycin). Then, the cells were treated with 3-(4,5-dimethylthiazol-2-yl)-2,5-diphenyltetrazolium bromide (MTT, Sigma®) for 4 hrs and absorbance of each well was measured with a plate reader at a wavelength of 450 nm. [Da-Qing, et. al., Anti-oxidant and anti-inflammatory activities of macelignan in murine hippocampal cell line and primary culture of rat microglia cells, BBRC, 2005, 331, 1264-1269].
(§2) In Table 1, EC50 is neuroprotective effect against glutamate toxicity and CC50 is cytotoxicity of the compounds. The EC50 values were statistically analyzed using Prizm® (GraphPad Software Inc., San Diego, Calif., USA).

Data set [2] concerns HT22 cells (mouse hippocampal neuron). Described as above. In kind it is cell-based. As to conditions: Mus musculus, HT-22, five millimolar glutamate, 24 hrs, read-out: EC50 (neuroprotective effect against glutamate toxicity). The protocol: as §1, §2

Counter-ions that a name gives are not always drawn. Where only a bound is given, the exact number is not on record here.

A word on the CC50: it is the concentration at which the toxic effect on the cells reaches its halfway point. A high value points to lower toxicity to the cells. A word on the EC50: it is the concentration needed to bring the measured effect to its halfway point.

In turn, `Oc1cc2c(cc1Nc1ccccc1Cc1ccccc1)C[C@@H]1NCC[C@]23CCCC[C@H]13` [Example 62, (+)-2-(2-Benzylphenylamino)-3-hydroxymorphinan TFA salt] gave a CC50 at 24 h in data set [1] of 1600 nM. Moreover, the EC50 in data set [2] was 52.4 nM.
In the same order, the values of `Oc1cc2c(cc1Nc1ccc3c(c1)CCCC3)C[C@@H]1NCC[C@]23CCCC[C@H]13` [Example 71, (+)-3-Hydroxy-24(5,6,7,8-tetrahydronaphthalen-2-ybamino)morphinan TFA salt] are 1600 nM and 36.2 nM.
The compound `Oc1cc2c(cc1Nc1ccc(Br)cc1)C[C@@H]1NCC[C@]23CCCC[C@H]13` [Example 33, (+)-2-(4-Bromophenylamino)-3-hydroxymorphinan TFA salt] showed a 50% cytotoxic concentration (CC50) at 24 h in data set [1] of 1670 nM. Further, the EC50 in data set [2] was found to be 69.7 nM.
In the same order, the values of `CSc1cc2c(cc1O)[C@]13CCCC[C@@H]1[C@H](C2)NCC3` [Example 72, (+)-3-Hydroxy-2-methylthiomorphinan TFA salt] are 77300 nM and 2210 nM.
Regarding `CCCNc1cc2c(cc1O)[C@]13CCCC[C@@H]1[C@H](C2)NCC3` [Example 88, (+)-3-Hydroxy-2-propylaminomorphinan TFA salt], it took 37200 nM to reach half-maximal cytotoxicity in data set [1] (CC50 at 24 h). The EC50 in data set [2] came to 41.6 nM.
Compound `Oc1cc2c(cc1N1CCCC1)C[C@@H]1NCC[C@]23CCCC[C@H]13` [Example 22, (+)-3-Hydroxy-2-(pyrrolidin-1-yl)morphinan TFA salt] gave a half-maximal cytotoxic concentration (CC50) at 24 h in data set [1] of 80500 nM. The EC50 in data set [2] is 638 nM.
Compound `Cc1c2c(cc(O)c1Nc1ccccc1NS(C)(=O)=O)[C@]13CCCC[C@@H]1[C@H](C2)NCC3` [Example 134, (+)-3-Hydroxy-2-(2-(methanesulfonamido)phenylamino)-1-methylmorphinan TFA salt] came in with a CC50 at 24 h in data set [1] of 53200 nM. The EC50 in data set [2] was determined as 153 nM.
In turn, `CCNc1cc2c(cc1O)[C@]13CCCC[C@@H]1[C@H](C2)NCC3` [Example 23, (+)-2-Ethylamino-3-hydroxymorphinan TFA salt] showed a CC50 at 24 h in data set [1] of 49100 nM. In addition, the EC50 in data set [2] stood at 1100 nM.
The compound `Oc1cc2c(cc1Nc1ccccc1)C[C@@H]1NCC[C@]23CCCC[C@H]13` [Example 30, (+)-3-Hydroxy-2-(phenylamino)morphinan TFA salt] displayed a CC50 at 24 h in data set [1] of 7790 nM. Also, the EC50 in data set [2] is 35.8 nM.
Compound `O=C(Nc1ccccc1)Nc1ccccc1Nc1cc2c(cc1O)[C@]13CCCC[C@@H]1[C@H](C2)NCC3` [Example 122, (+)-3-Hydroxy-2-(2-(phenylureido)phenylamino)morphinan TFA salt] displayed a CC50 at 24 h in data set [1] of 33800 nM. Besides, the EC50 in data set [2] is 3700 nM.
In the same order, the values of `CC(C)(C)c1cc2c(cc1O)[C@]13CCCC[C@@H]1[C@H](C2)NCC3` [Example 104, (+)-2-tert-Butyl-3-hydroxymorphinan TFA salt] are 10000 nM and 1370 nM.
In the same order, the values of `CCOCCNc1cc2c(cc1O)[C@]13CCCC[C@@H]1[C@H](C2)NCC3` [Example 99, (+)-2-(2-Ethoxyethylamino)-3-hydroxymorphinan TFA salt] are greater than 100000 nM and 10400 nM.
In the same order, the values of `CN(C)c1cc2c(cc1O)[C@]13CCCC[C@@H]1[C@H](C2)NCC3` [Example 98, (+)-2-(Dimethylamino)-3-hydroxymorphinan TFA salt] are greater than 100000 nM and 5690 nM.
Compound `Cc1ccc(Nc2cc3c(cc2O)[C@]24CCCC[C@@H]2[C@H](C3)NCC4)cc1` [Example 28, (+)-3-Hydroxy-2-(4-methylphenylamino)morphinan TFA salt] came in with a half-maximal cytotoxic concentration (CC50) at 24 h in data set [1] of 1840 nM. Besides, the EC50 in data set [2] was determined as 32.5 nM.
In the same order, the values of `Oc1cc2c(cc1Nc1ccc3[nH]ncc3c1)C[C@@H]1NCC[C@]23CCCC[C@H]13` [Example 69, (+)-3-Hydroxy-2-((1H-indazol-5-yl)amino)morphinan TFA salt] are 48000 nM and 1020 nM.
On to `N#Cc1cccc(-c2cc3c(cc2O)[C@]24CCCC[C@@H]2[C@H](C3)NCC4)c1` [Example 78, (+)-2-(3-Cyanophenyl)-3-hydroxymorphinan TFA salt], for which the midpoint of cytotoxicity in data set [1], the CC50 at 24 h, lay at 21000 nM. In data set [2], the EC50 was 4600 nM.
In the same order, the values of `Oc1cc2c(cc1Nc1ccccc1OC(F)(F)F)C[C@@H]1NCC[C@]23CCCC[C@H]13` [Example 59, (+)-3-Hydroxy-2-(2-(trifluoromethoxy)phenylamino)morphinan TFA salt] are 1700 nM and 69.3 nM.
In the same order, the values of `COc1ccccc1Nc1cc2c(cc1O)[C@]13CCCC[C@@H]1[C@H](C2)NCC3` [Example 42, (+)-3-Hydroxy-2-(2-methoxyphenylamino)morphinan TFA salt] are 11400 nM and 95.9 nM.
Turning to `Oc1cc2c(cc1Nc1ccc3c(c1)OCO3)C[C@@H]1NCC[C@]23CCCC[C@H]13` [Example 36, (+)-3-Hydroxy-2-((3,4-methylendioxy)phenylamino)morphinan TFA salt], the CC50 at 24 h in data set [1] is 84500 nM. Moreover, the concentration for a half-maximal effect (EC50) in data set [2] stood at 301 nM.
In the same order, the values of `CN(c1ccc(F)cc1)c1cc2c(cc1O)[C@]13CCCC[C@@H]1[C@H](C2)NCC3` [Example 124, (+)-2-(4-Fluorophenyl(methyl)amino)-3-hydroxymorphinan TFA salt] are 6400 nM and 371 nM.
In the same order, the values of `Oc1cc2c(cc1Nc1ccccn1)C[C@@H]1NCC[C@]23CCCC[C@H]13` [Example 34, (+)-3-Hydroxy-2-(pyridin-2-ylamino)morphinan 2TFA salt] are 41500 nM and 2340 nM.
In data set [1], `Oc1cc2c(cc1Nc1ccccc1C(F)(F)F)C[C@@H]1NCC[C@]23CCCC[C@H]13` [Example 52, (+)-3-Hydroxy-2-(2-(trifluoromethyl)phenylamino)morphinan TFA salt] returned a half-maximal cytotoxic concentration (CC50) at 24 h of 1500 nM. Further, the EC50 in data set [2] is 24.9 nM.
In the same order, the values of `Nc1ccc(Nc2cc3c(cc2O)[C@]24CCCC[C@@H]2[C@H](C3)NCC4)cc1` [Example 32, (+)-2-(4-Aminophenyamino)-3-hydroxymorphinan TFA salt] are 14100 nM and 43.1 nM.
In the same order, the values of `CCN(CC)c1cc2c(cc1O)[C@]13CCCC[C@@H]1[C@H](C2)NCC3` [Example 101, (+)-2-(Diethylamino)-3-hydroxymorphinan TFA salt] are greater than 100000 nM and 14000 nM.
`Oc1cc2c(cc1Nc1ccc(OC(F)(F)F)cc1)C[C@@H]1NCC[C@]23CCCC[C@H]13` [Example 58, (+)-3-Hydroxy-2-(4-(trifluoromethoxy)phenylamino)morphinan TFA salt] registered a cytotoxic concentration (CC50) at 24 h in data set [1] of 1400 nM. Also, in data set [2], the EC50 stood at 131 nM.
In data set [1], `Oc1cc2c(cc1Nc1ccc3ncccc3c1)C[C@@H]1NCC[C@]23CCCC[C@H]13` [Example 68, TFA salt] displayed a 50% cytotoxic concentration (CC50) at 24 h of 8500 nM. For the same compound, in data set [2], the 50% effective concentration (EC50) came to 1720 nM.
In the same order, the values of `N#Cc1ccccc1Nc1cc2c(cc1O)[C@]13CCCC[C@@H]1[C@H](C2)NCC3` [Example 107, (+)-2-(2-Cyanophenylamino)-3-hydroxymorphinan TFA salt] are 5800 nM and 557 nM.
In the same order, the values of `OCCNc1cc2c(cc1O)[C@]13CCCC[C@@H]1[C@H](C2)NCC3` [Example 100, (+)-3-Hydroxy-2-(2-hydroxyethylamino)morphinan TFA salt] are greater than 100000 nM and 11700 nM.
In the same order, the values of `Cc1cc(C)cc(Nc2cc3c(cc2O)[C@]24CCCC[C@@H]2[C@H](C3)NCC4)c1` [Example 27, (+)-2-(3,5-Dimethylphenylamino)-3-hydroxymorphinan TFA salt] are 1520 nM and 27.3 nM.
In the case of `CC(C)(C)C(=O)Nc1ccccc1Nc1cc2c(cc1O)[C@]13CCCC[C@@H]1[C@H](C2)NCC3` [Example 115, (+)-3-Hydroxy-2-(2-(pivalamido)phenylamino)morphinan TFA salt], in data set [1], it took 53600 nM to reach half-maximal cytotoxicity (CC50 at 24 h). In data set [2], the EC50 is 2500 nM.
In the same order, the values of `CC(Nc1cc2c(cc1O)[C@]13CCCC[C@@H]1[C@H](C2)NCC3)c1ccccc1` (stereo partly drawn) [Example 91, (+)-3-Hydroxy-2-(1-phenylethylamino)morphinan TFA salt] are 15000 nM and 81.3 nM.
In the same order, the values of `CCCN(CCC)c1cc2c(cc1O)[C@]13CCCC[C@@H]1[C@H](C2)NCC3` [Example 96, (+)-2-(Dipropylamino)-3-hydroxymorphinan TFA salt] are 3490 nM and 178 nM.
In the same order, the values of `CCc1ccccc1Nc1cc2c(cc1O)[C@]13CCCC[C@@H]1[C@H](C2)NCC3` [Example 49, (+)-2-(2-Ethylphenylamino)-3-hydroxymorphinan TFA salt] are 1100 nM and 32.8 nM.
`Oc1cc2c(cc1Nc1cccc(F)c1O)C[C@@H]1NCC[C@]23CCCC[C@H]13` [Example 57, (+)-2-(3-Fluoro-2-hydroxyphenylamino)-3-hydroxymorphinan TFA salt]: in data set [1], it took 5500 nM to reach half-maximal cytotoxicity (CC50 at 24 h). The concentration for a half-maximal effect (EC50) in data set [2] is 199 nM.
In the same order, the values of `CN1CCN(c2cc3c(cc2O)[C@]24CCCC[C@@H]2[C@H](C3)NCC4)CC1` [Example 24, (+)-3-Hydroxy-2-(4-methylpiperazin-1-yl)morphinan 2TFA salt] are 14400 nM and 3100 nM.

The record behind these values is US20120122848A1, “(+)-3-HYDROXYMORPHINAN DERIVATIVES AS NEUROPROTECTANTS” (GREEN CROSS CORPORATION, priority 2009, published 2012).
